Data reported in patent US7521596B2, “Method for controlling weeds” (Sumitomo Chemical Company, Limited, priority 2004, dated 2009).

Key:
[1] = tested on: recombinant tobacco line 1609soy#25 (cytochrome P450 of SEQ ID NO: 1 introduced); experiment: Spray test of the present herbicidal compound, recombinant tobacco line 1609soy#25; assay type: in vivo, Nicotinia tabacum; conditions: score 0 (died) to 3; for average phytotoxicity score (sensitivity to carfentrazone-ethyl): applied as AIM HERBICIDE dry flowable; for average phytotoxicity score (sensitivity to flufenpyr-ethyl): about 2 weeks after spraying, average of 4 individuals
Description: (§1) Seeds of the homozygote lines selected in Example 4 (seeds of lines #17 and #25 of the recombinant tobacco to which plasmid pBI-NdG6-rSt-1609soy has been introduced, and seeds of the line 1584soy#16 of the recombinant tobacco to which plasmid pBI-NdG6-rSt-1584soy has been introduced) were aseptically seeded on MS agar medium containing 100 mg/L kanamycin. Also, seeds of the wild-type tobacco line SR-1 were aseptically seeded on MS agar medium. After about 2 weeks, germinated seedlings were observed.
(§2) Germinated individuals were transplanted to growing pots containing horicultural soil (Kureha Engei Baido manufactured by Kureha Chemical Industry Co., Ltd.), acclimated to the external environment in a growth chamber, then grown for about 2 weeks at 23° C., 23 hours of day length in a growth chamber. Thus obtained plants were applied to the spray test of the present herbicidal compound, flufenpyr-ethyl.
(§3) Flufenpyr-ethyl was dissolved in Solvesso cocktail mixed Solvesso 200 (manufactured by Valent) and Sorpol 3816 (manufactured Sumitomo Chemical Co., Ltd.) at the ratio of 87.5:10 such that flufenpyr-ethyl was respectively contained 0.89 mg or 1.78 mg in 0.5 mL Solvesso cocktail. The spray liquid of flufenpyr-ethyl was prepared as the aqueous solution containing the Solvesso cocktail of 2.5% concentration in which the compound was dissolved and Agri dex of 1% concentration (manufactured by Valent) as adjuvant.
(§4) Spray of the spray liquid to the plant above described was carried out, by using running automatic spray machine (manufactured by Nambasekkei), such that spray liquid 20 mL was sprayed to the recombinant tobacco seedlings put at 0.9 square meter of the sprayed area in a uniform way. After about 2 weeks, the sensitivity of the applied recombinant tobacco line to flufenpyr-ethyl was compared to the sensitivity of the wild-type tobacco line SR-1 to flufenpyr-ethyl. In the above spray test, 4 individuals of the recombinant tobacco were used with respect to each applied amount of flufenpyr-ethyl. The sensitivity of the recombinant tobacco to flufenpyr-ethyl was decided by scoring it based on the index below, and calculating the average of the score of 4 individuals with respect to each recombinant tobacco line and applied amount for it. The same spray test of wild-type line SR-1 was carried out as a negative control.
(§5) <Scoring Index Based on the Degree of Phytotoxicity as Dying of the Individual and Browning or Whitening of the Leaves or Stems Caused by Compound Spraying>
(§6) As to the homozygote line 1609soy#25 selected in Example 4 from among the recombinant tobacco lines to which a DNA having a nucleotide sequence encoding the amino acid sequence of SEQ ID NO: 1 has been introduced, and the wild-type tobacco line SR-1, their sensitivities to the compound (I), carfentrazone-ethyl and sulfentrazone were investigated according to the method described in Example 5 (evaluation by scoring index based on the degree of phytotoxicity as dying of the individual and browning or whitening of the leaves or stems caused by compound spraying). […]

[2] = tested on: recombinant soybean line J18 (cytochrome P450 of SEQ ID NO: 1 introduced); experiment: Spray test of the present herbicidal compound, recombinant soybean line J18; assay type: in vivo; conditions: for average phytotoxicity score (sensitivity to carfentrazone-ethyl): J18 (T2 generation), sprayed 21st day after seeding, scored 2 weeks after spraying, score 0 (died) to 3
Description: (§7) Seeds of these lines were seeded and grown in growing pots containing horicultural soil (Kureha Engei Baido manufactured by Kureha Chemical Industry Co. Ltd.) When trifoliate leaves were developed after germination, the seedlings were transplanted to growing pots containing the soil prepared by mixing equal amount of the Kureha Engei Baido and field soil, and then grown in a greenhouse according to the method of Example 17 of WO0304370 to obtain seeds of T2 generation of each line. Among the obtained T2 generations, seeds of T2 generation of the line J18 (seeds of the recombinant soybean) were seeded in growing pots containing horicultural sail (Kureha Engei Baido manufactured by Kureha Chemical Industry Co., Ltd.) and grown. According to the above method described in Example 5, it was sprayed carfentrazone-ethyl to the seedling on the 21st day after seeding, and compared the sensitivity to carfentrazone-ethyl of the recombinant soybean with the sensitivity to carfentrazone-ethyl of wild-type soybean line (cv. Jack) at 2 weeks after spraying. The spray liquid of the above herbicidal compound was prepared as follows.
(§8) The spray liquid was prepared by diluting dry flowable preparation of carfentrazone-ethyl (AIM™ HERBICIDE manufactured by FMC, containing 40% (w/w) of carfentrazone-ethyl) with Agri dex (manufactured by Valent) 1% aqueous solution to be contained 1.79 mg, 3.57 mg or 7.14 mg of carfentrazone-ethyl in the spray liquid.
(§9) The sensitivity of the recombinant soybean to carfentrazone-ethyl was decided by scoring it based on the index below, and calculating the average of the scores with respect to each recombinant soybean line and applied amount for it. The same spray test of the wild-type soybean line (cv. Jack) was carried out as a negative control.
as §5

[3] = tested on: wild-type soybean line (cv. Jack); experiment: Spray test of the present herbicidal compound, wild-type soybean (negative control); assay type: in vivo; conditions: sprayed 21st day after seeding, scored 2 weeks after spraying, score 0 (died) to 3
Description: as §7, §8, §9, §5

[4] = tested on: wild-type tobacco line SR-1; experiment: Spray test of the present herbicidal compound, wild-type tobacco (negative control); assay type: in vivo, Nicotinia tabacum; conditions: wild type SR-1, score 0 (died) to 3; for average phytotoxicity score (sensitivity to carfentrazone-ethyl): applied as AIM HERBICIDE dry flowable; for average phytotoxicity score (sensitivity to flufenpyr-ethyl): about 2 weeks after spraying, average of 4 individuals
Description: as §1, §2, §3, §4, §5, §6

[5] = tested on: recombinant tobacco line 1609soy#17 (cytochrome P450 of SEQ ID NO: 1 introduced); experiment: Spray test of the present herbicidal compound, recombinant tobacco line 1609soy#17; assay type: in vivo, Nicotinia tabacum; conditions: about 2 weeks after spraying, average of 4 individuals, score 0 (died) to 3
Description: as §1, §2
(§10) Flufenpyr-ethyl was dissolved in Solvesso cocktail mixed Solvesso 200 (manufactured by Valent) and Sorpol 3816 (manufactured Sumitomo Chemical Co., Ltd.) at the ratio of 87.5:10 such that flufenpyr-ethyl was respectively contained 0.89 mg or 1.78 mg in 0.5 mL Solvesso cocktail. […]

[6] = tested on: recombinant tobacco line 1584soy#16 (cytochrome P450 of SEQ ID NO: 2 introduced); experiment: Spray test of the present herbicidal compound, recombinant tobacco line 1584soy#16; assay type: in vivo, Nicotinia tabacum; conditions: about 2 weeks after spraying, average of 4 individuals, score 0 (died) to 3
Description: as §1, §2, §10

`CCOC(=O)C(Cl)Cc1cc(-n2nc(C)n(C(F)F)c2=O)c(F)cc1Cl` (stereo not drawn) [carfentrazone-ethyl] was tested, and the “average phytotoxicity score (sensitivity to carfentrazone-ethyl)” value ([1]; 0.446 mg/20 mL spray liquid) was 2.5, the “average phytotoxicity score (sensitivity to carfentrazone-ethyl)” value ([1]; 0.893 mg/20 mL spray liquid) was 1.8 and the “average phytotoxicity score (sensitivity to carfentrazone-ethyl)” value ([1]; 4.46 mg/20 mL spray liquid) was 1.5. The “average phytotoxicity score (sensitivity to carfentrazone-ethyl)” value ([2]; 1.79 mg/20 mL spray liquid) was 1.8, the “average phytotoxicity score (sensitivity to carfentrazone-ethyl)” value ([2]; 3.57 mg/20 mL spray liquid) was 1.4 and the “average phytotoxicity score (sensitivity to carfentrazone-ethyl)” value ([2]; 7.14 mg/20 mL spray liquid) was 0.9. The “phytotoxicity / resistance as compared to the wild-type plant cv. Jack” value ([2]; line J18, 1.79, 3.57 or 7.14 mg in the spray liquid) was “the phytotoxicity was reduced and remarkable improvement of the resistance was recognized”, the “average phytotoxicity score (sensitivity to carfentrazone-ethyl)” value ([3]; 1.79 mg/20 mL spray liquid) was 1.0 and the “average phytotoxicity score (sensitivity to carfentrazone-ethyl)” value ([3]; 3.57 mg/20 mL spray liquid) was 0.9. For the same molecule, the “average phytotoxicity score (sensitivity to carfentrazone-ethyl)” value ([3]; 7.14 mg/20 mL spray liquid) was 0.3, the “average phytotoxicity score (sensitivity to carfentrazone-ethyl)” value ([4]; 0.446 mg/20 mL spray liquid) was 1.0 and the “average phytotoxicity score (sensitivity to carfentrazone-ethyl)” value ([4]; 0.893 mg/20 mL spray liquid) was 0.0. The “average phytotoxicity score (sensitivity to carfentrazone-ethyl)” value ([4]; 4.46 mg/20 mL spray liquid) was 0.0.
With `CCOC(=O)COc1cc(-n2ncc(C(F)(F)F)c(C)c2=O)c(F)cc1Cl` [flufenpyr-ethyl] the “average phytotoxicity score (sensitivity to flufenpyr-ethyl)” value ([1]; 0.89 mg/20 mL spray liquid) was 3.0, the “average phytotoxicity score (sensitivity to flufenpyr-ethyl)” value ([1]; 1.78 mg/20 mL spray liquid) was 3.0 and the “average phytotoxicity score (sensitivity to flufenpyr-ethyl)” value ([5]; 0.89 mg/20 mL spray liquid) was 3.0. For the same molecule, the “average phytotoxicity score (sensitivity to flufenpyr-ethyl)” value ([5]; 1.78 mg/20 mL spray liquid) was 3.0, the “average phytotoxicity score (sensitivity to flufenpyr-ethyl)” value ([4]; 0.89 mg/20 mL spray liquid) was 1.7 and the “average phytotoxicity score (sensitivity to flufenpyr-ethyl)” value ([4]; 1.78 mg/20 mL spray liquid) was 0.0. For the same molecule, the “average phytotoxicity score (sensitivity to flufenpyr-ethyl)” value ([6]; 0.89 mg/20 mL spray liquid) was 3.0 and the “average phytotoxicity score (sensitivity to flufenpyr-ethyl)” value ([6]; 1.78 mg/20 mL spray liquid) was 3.0.
